Assay results taken from patent publication US20250032485A1, “APPLICATION OF IMIDAZO [1,2-A] PYRAZINE COMPOUNDS OR THEIR PHARMACEUTICALLY ACCEPTABLE SALTS IN THE PREPARATION OF ANTI-CORONAVIRUS DRUGS” (GUANGZHOU MEDICAL UNIVERSITY, priority 2023, published 2025).

Molecular target: PLpro of SARS-CoV-2 (Severe acute respiratory syndrome coronavirus 2, UniProt P0DTD1)
Assay: Enzyme activity test in vitro: inhibition of PLpro at fixed concentration 50 μM (RLRGG-AMC substrate)
Type: biochemical
Details: read-out: Inhibition rate at 50 μM (%)

COc1ccc(-c2nc3cnccn3c2Nc2ccc(C(=O)O)cc2)cc1 [P19514, 4-[[2-(4-methoxy-phenyl)imidazo[1,2-a]pyrazin-3-yl]amino] benzoic acid]
inhibition at 50 µM: 36%

COC(=O)c1cccc(Nc2c(-c3ccc(C)cc3)nc3cnccn23)c1 [P19515, methyl 3-[[2-(4-methyl-phenyl)imidazo[1,2-a]pyrazin-3-yl]amino] benzoate]
inhibition at 50 µM: 37.1%

O=C(O)c1cccc(Nc2c(-c3ccc(Cl)cc3)nc3cnccn23)c1 [P19516, 3-[[2-(4-chlorophenyl)imidazo[1,2-a]pyrazin-3-yl]amino] benzoic acid]
inhibition at 50 µM: 32.8%

CCNC(=O)c1ccc(Nc2c(-c3ccc(Cl)cc3)nc3cnccn23)cc1 [P22402, 4-[[2-(4-chlorophenyl)imidazo[1,2-a]pyrazin-3-yl]amino]-N-ethylbenzamide]
inhibition at 50 µM: 31.3%

COc1ccc(-c2nc3cnccn3c2Nc2ccc(C(=O)NCCN3CCOCC3)cc2)cc1 [P22403, 4-[[2-(4-methoxy-phenyl)imidazo[1,2-a]pyrazin-3-yl]amino]-N-(2-morpholin-4-ylethyl)benzamide]
inhibition at 50 µM: 31.7%

O=C(NC1CCCCC1)c1ccc(Nc2c(-c3ccccc3)nc3cnccn23)cc1 [P22404, N-cyclohexyl-4-[(2-phenylimidazo[1,2-a]pyrazin-3-yl)amino] benzamide]
inhibition at 50 µM: 26.1%

COc1ccc(-c2nc3cnccn3c2Nc2ccc(C(=O)N3CCOCC3)cc2)cc1 [P22405, [4-[[2-(4-methoxy-phenyl)imidazo[1,2-a]pyrazin-3-yl]amino]phenyl]-morpholin-4-ylmethanone]
inhibition at 50 µM: 36.5%

CN(C)c1ccc(-c2nc3cnccn3c2Nc2cccc(C(N)=O)c2)cc1 [P22406, 3-[[2-[4-(dimethyl-amino)phenyl]imidazo [1,2-a]pyrazin-3-yl]amino]benzamide]
inhibition at 50 µM: 37.2%

CC(C)NC(=O)c1cccc(Nc2c(-c3ccc(Cl)cc3)nc3cnccn23)c1 [P22407, 3-[[2-(4-chlorophenyl)imidazo[1,2-a]pyrazin-3-yl]amino]-N-propan-2-ylbenzamide]
inhibition at 50 µM: 32.6%

O=C(NCC1CCCO1)c1cccc(Nc2c(-c3ccc(Cl)cc3)nc3cnccn23)c1 (stereo not drawn) [P22408, 3-[[2-(4-chlorophenyl)imidazo[1,2-a]pyrazin-3-yl]amino]-N-(oxolan-2-ylmethyl)benzamide]
inhibition at 50 µM: 17.3%

O=C(c1cccc(Nc2c(-c3ccccc3)nc3cnccn23)c1)N1CCOCC1 [P22409, morpholin-4-yl-[3-[(2-phenylimidazo [1,2-a]pyrazin-3-yl)amino]phenyl] methanone]
inhibition at 50 µM: 28.2%

CCNC(=O)c1ccc(Nc2c(-c3ccc(OC)c(OC)c3)nc3cnccn23)cc1 [P22410, 4-[[2-(3,4-dimethoxy-phenyl)imidazo[1,2-a]pyrazin-3-yl]amino]-N-ethylbenzamide]
inhibition at 50 µM: 42.2%

CCNC(=O)c1ccc(Nc2c(-c3ccc(C)cc3)nc3cnccn23)cc1 [P22412, N-ethyl-4-[[2-(4-methylphenyl)imidazo [1,2-a]pyrazin-3-yl]amino]benzamide]
inhibition at 50 µM: 33.5%

O=C(NCCN1CCOCC1)c1ccc(Nc2c(-c3ccc(Cl)cc3)nc3cnccn23)cc1 [P22413, 4-[[2-(4-chlorophenyl)imidazo[1,2-a]pyrazin-3-yl]amino]-N-(2-morpholin-4-ylethyl)benzamide]
inhibition at 50 µM: 36.1%

CNC(=O)c1cccc(Nc2c(-c3ccccc3)nc3cnccn23)c1 [P22416, N-methyl-3-[(2-phenylimidazo[1,2-a]pyrazin-3-yl)amino] benzamide]
inhibition at 50 µM: 30.2%

CSc1ccc(-c2nc3cnccn3c2Nc2cccc(C(=O)NC(C)C)c2)cc1 [P22417, 3-[[2-(4-methyl-sulfanylphenyl)imidazo [1,2-a]pyrazin-3-yl]amino]-N-propan-2-ylbenzamide]
inhibition at 50 µM: 43.4%

CSc1ccc(-c2nc3cnccn3c2Nc2cccc(C(=O)NCC3CCCO3)c2)cc1 (stereo not drawn) [P22418, 3-[[2-(4-methyl-sulfanylphenyl)imidazo [1,2-a]pyrazin-3-yl]amino]-N-(oxolan-2-ylmethyl)benzamide]
inhibition at 50 µM: 34.5%

COc1ccc(-c2nc3cnccn3c2Nc2ccc(C(=O)NC(C)C)cc2)cc1OC [P22420, 4-[[2-(3,4-dimethoxy-phenyl)imidazo[1,2-a]pyrazin-3-yl]amino]-N-propan-2-ylbenzamide]
inhibition at 50 µM: 43.9%

CSc1ccc(-c2nc3cnccn3c2Nc2ccc(C(=O)N3CCOCC3)cc2)cc1 [P22425, [4-[[2-(4-methyl-sulfanylphenyl)imidazo [1,2-a]pyrazin-3-yl]amino]phenyl]-morpholin-4-ylmethanone]
inhibition at 50 µM: 40.7%

O=C(NCCN1CCOCC1)c1cccc(Nc2c(-c3ccccc3)nc3cnccn23)c1 [P22427, N-[2-(1,4-oxazinan-4-yl)ethyl]-3-[(2-phenylimidazo[1,2-a]pyrazin-3-yl)amino] benzamide]
inhibition at 50 µM: 22.8%

O=C(c1cccc(Nc2c(-c3ccc(Cl)cc3)nc3cnccn23)c1)N1CCOCC1 [P22429, [3-[[2-(4-chlorophenyl)imidazo[1,2-a]pyrazin-3-yl]amino]phenyl]-morpholin-4-ylmethanone]
inhibition at 50 µM: 24.7%

COc1ccc(-c2nc3cnccn3c2Nc2ccc(C(=O)NC(C)C)cc2)cc1 [P22432, 4-[[2-(4-methoxy-phenyl)imidazo[1,2-a]pyrazin-3-yl]amino]-N-propan-2-ylbenzamide]
inhibition at 50 µM: 42.2%

CN(C)CCNC(=O)c1ccc(Nc2c(-c3ccccc3)nc3cnccn23)cc1 [P22433, N-[2-(dimethylamino)ethyl]-4-[(2-phenyl-imidazo[1,2-a]pyrazin-3-yl)amino] benzamide]
inhibition at 50 µM: 30.5%

Cc1ccc(-c2nc3cnccn3c2Nc2ccc(C(=O)NC3CCCCC3)cc2)cc1 [P22434, N-cyclohexyl-4-[[2-(4-methylphenyl)imidazo[1,2-a]pyrazin-3-yl]amino]benzamide]
inhibition at 50 µM: 41.1%

O=C(NCc1ccco1)c1ccc(Nc2c(-c3ccccc3)nc3cnccn23)cc1 [P22435, N-(furan-2-ylmethyl)-4-[(2-phenylimidazo [1,2-a]pyrazin-3-yl)amino]benzamide]
inhibition at 50 µM: 23.9%

CNC(=O)c1cccc(Nc2c(-c3ccc(SC)cc3)nc3cnccn23)c1 [P22436, N-methyl-3-[[2-(4-methylsulfanylphenyl)imidazo[1,2-a]pyrazin-3-yl]amino] benzamide]
inhibition at 50 µM: 31.3%

COc1ccc(-c2nc3cnccn3c2Nc2cccc(C(=O)NCCN3CCOCC3)c2)cc1 [P22437, 3-[[2-(4-methoxy-phenyl)imidazo[1,2-a]pyrazin-3-yl]amino]-N-(2-morpholin-4-ylethyl)benzamide]
inhibition at 50 µM: 24.2%

CSc1ccc(-c2nc3cnccn3c2Nc2cccc(C(=O)N3CCOCC3)c2)cc1 [P22439, [3-[[2-(4-methyl-sulfanylphenyl)imidazo [1,2-a]pyrazin-3-yl]amino]phenyl]-morpholin-4-ylmethanone]
inhibition at 50 µM: 23.2%

COc1ccc(-c2nc3cnccn3c2Nc2ccc(C(=O)NCC3CCCO3)cc2)cc1OC (stereo not drawn) [P22440, 4-[[2-(3,4-dimethoxy-phenyl)imidazo[1,2-a]pyrazin-3-yl]amino]-N-(oxolan-2-ylmethyl)benzamide]
inhibition at 50 µM: 33.5%

CC(C)NC(=O)c1ccc(Nc2c(-c3ccc(Cl)cc3)nc3cnccn23)cc1 [P22442, 4-[[2-(4-chlorophenyl)imidazo[1,2-a]pyrazin-3-yl]amino]-N-propan-2-ylbenzamide]
inhibition at 50 µM: 37.1%

COc1ccc(-c2nc3cnccn3c2Nc2ccc(C(=O)NCCN(C)C)cc2)cc1 [P22443, N-[2-(dimethylamino)ethyl]-4-[[2-(4-methoxyphenyl)imidazo[1,2-a]pyrazin-3-yl]amino]benzamide]
inhibition at 50 µM: 41.2%

O=C(c1ccc(Nc2c(-c3ccccc3)nc3cnccn23)cc1)N1CCCCC1 [P22444, [4-[(2-phenylimidazo [1,2-a]pyrazin-3-yl)amino]phenyl]-piperidin-1-ylmethanone]
inhibition at 50 µM: 43.9%

CCNC(=O)c1cccc(Nc2c(-c3ccccc3)nc3cnccn23)c1 [P22446, N-ethyl-3-[(2-phenyl-imidazo[1,2-a]pyrazin-3-yl)amino] benzamide]
inhibition at 50 µM: 44.4%

O=C(NCCN1CCOCC1)c1cccc(Nc2c(-c3ccc(Cl)cc3)nc3cnccn23)c1 [P22447, 3-[[2-(4-chlorophenyl)imidazo[1,2-a]pyrazin-3-yl]amino]-N-(2-morpholin-4-ylethyl)benzamide]
inhibition at 50 µM: 41.9%

CSc1ccc(-c2nc3cnccn3c2Nc2cccc(C(=O)NC3CCCCC3)c2)cc1 [P22448, N-cyclohexyl-3-[[2-(4-methylsulfanyl-phenyl)imidazo[1,2-a]pyrazin-3-yl]amino] benzamide]
inhibition at 50 µM: 26.9%

O=C(NCc1ccco1)c1cccc(Nc2c(-c3ccccc3)nc3cnccn23)c1 [P22449, N-(furan-2-ylmethyl)-3-[(2-phenylimidazo [1,2-a]pyrazin-3-yl)amino]benzamide]
inhibition at 50 µM: 27.5%

COc1ccc(-c2nc3cnccn3c2Nc2ccc(C(=O)NC3CCCCC3)cc2)cc1OC [P22450, N-cyclohexyl-4-[[2-(3,4-dimethoxyphenyl)imidazo[1,2-a]pyrazin-3-yl]amino] benzamide]
inhibition at 50 µM: 20.8%

CNC(=O)c1ccc(Nc2c(-c3ccccc3)nc3cnccn23)cc1 [P22451, N-methyl-4-[(2-phenyl-imidazo[1,2-a]pyrazin-3-yl)amino] benzamide]
inhibition at 50 µM: 34.7%

Cc1ccc(-c2nc3cnccn3c2Nc2ccc(C(=O)NC(C)C)cc2)cc1 [P22452, 4-[[2-(4-methylphenyl)imidazo[1,2-a]pyrazin-3-yl]amino]-N-propan-2-ylbenzamide]
inhibition at 50 µM: 33.6%

Cc1ccc(-c2nc3cnccn3c2Nc2ccc(C(=O)NCCN(C)C)cc2)cc1 [P22453, N-[2-(dimethylamino)ethyl]-4-[[2-(4-methylphenyl)imidazo [1,2-a]pyrazin-3-yl]amino]benzamide]
inhibition at 50 µM: 36.6%

COc1ccc(-c2nc3cnccn3c2Nc2ccc(C(=O)N3CCCCC3)cc2)cc1 [P22454, [4-[[2-(4-methoxy-phenyl)imidazo[1,2-a]pyrazin-3-yl]amino]phenyl]-piperidin-1-ylmethanone]
inhibition at 50 µM: 31.8%

Cc1ccc(-c2nc3cnccn3c2Nc2ccc(C(=O)NCc3ccco3)cc2)cc1 [P22455, N-(furan-2-ylmethyl)-4-[[2-(4-methyl-phenyl)imidazo[1,2-a]pyrazin-3-yl]amino] benzamide]
inhibition at 50 µM: 40.1%
